Experimental data: ChEMBL document CHEMBL5465560, “Selectivity Literature for EUbOPEN Chemogenomic Library” (2024)
One block for each compound: values may come before it.

Tests used:
[1] = target: T1, Activin receptor type-1 (Homo sapiens) (UniProt Q04771); details: at 10 µM
T1 sequence (whole entry): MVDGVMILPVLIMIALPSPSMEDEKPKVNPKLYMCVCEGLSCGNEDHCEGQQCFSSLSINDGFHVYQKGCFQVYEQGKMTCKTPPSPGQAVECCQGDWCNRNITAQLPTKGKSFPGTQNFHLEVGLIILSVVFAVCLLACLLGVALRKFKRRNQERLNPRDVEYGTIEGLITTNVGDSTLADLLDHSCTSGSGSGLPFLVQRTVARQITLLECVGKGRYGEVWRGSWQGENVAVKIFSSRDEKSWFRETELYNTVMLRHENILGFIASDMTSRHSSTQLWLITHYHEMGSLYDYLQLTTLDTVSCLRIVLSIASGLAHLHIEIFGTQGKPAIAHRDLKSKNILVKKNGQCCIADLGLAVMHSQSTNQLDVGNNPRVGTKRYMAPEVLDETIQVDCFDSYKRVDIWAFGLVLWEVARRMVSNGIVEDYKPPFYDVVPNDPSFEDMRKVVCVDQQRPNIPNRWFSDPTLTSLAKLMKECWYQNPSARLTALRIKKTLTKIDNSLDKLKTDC

[2] = target: Serine/threonine-protein kinase MRCK alpha (Homo sapiens) (UniProt Q5VT25); test: Selectivity interaction (Kinase panel (DSF assay)) EUB0001559a CDC42BPA
[3] = target: High affinity nerve growth factor receptor (Homo sapiens, UniProt P04629); test: Selectivity interaction (Kinase panel (literature)) EUB0001199aCl NTRK1; details: at 1 µM
[4] = target: Atypical kinase COQ8A, mitochondrial (Homo sapiens, UniProt Q8NI60); test: Selectivity interaction (KinomeScan (DiscoverX)) EUB0000655a ADCK3; details: at 10 µM
[5] = target: Bone morphogenetic protein receptor type-1B (Homo sapiens, UniProt O00238); test: Selectivity interaction (KinomeScan (DiscoverX)) EUB0001619a BMPR1B; details: at 1 µM
[6] = target: T2, Mitogen-activated protein kinase 12 (Homo sapiens) (UniProt P53778); test: Selectivity interaction (KinomeScan (DiscoverX)) EUB0001619a MAPK12; details: at 1 µM
T2 sequence (whole entry): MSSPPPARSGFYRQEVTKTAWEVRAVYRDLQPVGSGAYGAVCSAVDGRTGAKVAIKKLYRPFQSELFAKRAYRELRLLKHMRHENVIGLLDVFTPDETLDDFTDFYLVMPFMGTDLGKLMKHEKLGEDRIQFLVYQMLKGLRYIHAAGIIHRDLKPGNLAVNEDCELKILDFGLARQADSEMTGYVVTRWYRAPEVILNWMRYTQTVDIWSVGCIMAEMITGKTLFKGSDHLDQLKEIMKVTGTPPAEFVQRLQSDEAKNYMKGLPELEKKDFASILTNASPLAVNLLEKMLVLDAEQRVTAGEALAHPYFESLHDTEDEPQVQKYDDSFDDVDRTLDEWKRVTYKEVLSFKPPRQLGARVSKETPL

[7] = target: AP2-associated protein kinase 1 (Homo sapiens, UniProt Q2M2I8); test: Selectivity interaction (Kinase panel (DSF assay)) EUB0001558a AAK1
[8] = target: T3, Serine/threonine-protein kinase BRSK2 (Homo sapiens) (UniProt Q8IWQ3); test: Selectivity interaction (KinomeScan (DiscoverX)) EUB0000045b BRSK2
T3 sequence (whole entry): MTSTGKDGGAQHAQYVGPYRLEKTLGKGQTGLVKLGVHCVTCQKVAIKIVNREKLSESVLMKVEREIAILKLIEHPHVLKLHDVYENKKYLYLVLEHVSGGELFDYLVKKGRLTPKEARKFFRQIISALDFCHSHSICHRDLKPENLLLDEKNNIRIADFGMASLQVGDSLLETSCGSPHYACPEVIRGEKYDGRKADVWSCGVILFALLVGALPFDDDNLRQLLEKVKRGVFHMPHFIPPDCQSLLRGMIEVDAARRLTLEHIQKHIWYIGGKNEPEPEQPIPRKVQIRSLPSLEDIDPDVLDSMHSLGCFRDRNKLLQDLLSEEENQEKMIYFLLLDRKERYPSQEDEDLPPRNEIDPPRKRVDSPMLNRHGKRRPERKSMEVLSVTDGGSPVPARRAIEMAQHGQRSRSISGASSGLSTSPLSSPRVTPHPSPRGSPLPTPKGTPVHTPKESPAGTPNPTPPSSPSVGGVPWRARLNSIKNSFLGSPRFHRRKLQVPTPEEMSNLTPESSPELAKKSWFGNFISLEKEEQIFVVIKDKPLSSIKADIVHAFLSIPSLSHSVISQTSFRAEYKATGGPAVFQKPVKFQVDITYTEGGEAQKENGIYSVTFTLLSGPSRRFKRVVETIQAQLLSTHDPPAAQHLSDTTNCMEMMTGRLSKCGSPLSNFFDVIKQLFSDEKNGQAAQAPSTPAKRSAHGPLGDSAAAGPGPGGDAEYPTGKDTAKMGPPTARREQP

[9] = target: Vascular endothelial growth factor receptor 3 (Homo sapiens, UniProt P35916); test: Selectivity interaction (KinomeScan (DiscoverX)) EUB0000595a FLT4; details: at 10 µM
[10] = target: Serine/threonine-protein kinase/endoribonuclease IRE1 (Homo sapiens) (UniProt O75460); test: Selectivity interaction (ActivX KiNativ screen (kinase selectivity in THP-1 cell lysates)) EUB0000639a ERN1; format: subcellular; details: lysate
[11] = target: Phosphatidylinositol 3-kinase catalytic subunit type 3 (Homo sapiens, UniProt Q8NEB9); test: Selectivity interaction (ActivX KiNativ screen (kinase selectivity in THP-1 cell lysates)) EUB0000639a PIK3C3; format: subcellular; details: lysate
[12] = target: Tyrosine-protein kinase SYK (Homo sapiens, UniProt P43405); test: Selectivity interaction (Kinase panel (Invitrogen)) EUB0000639a SYK; details: at 200 nM
[13] = target: Cell division cycle 7-related protein kinase (Homo sapiens, UniProt O00311); test: Selectivity interaction (Kinase panel (Enzyme activity assay)) EUB0000612a CDC7
[14] = target: Platelet-derived growth factor receptor beta (Homo sapiens, UniProt P09619); test: Selectivity interaction (KinomeScan (DiscoverX)) EUB0000666a PDGFRB; details: at 10 µM
[15] = target: Bone morphogenetic protein receptor type-1A (Homo sapiens, UniProt P36894); test: Selectivity interaction (KinomeScan (DiscoverX)) EUB0000092b BMPR1A; details: at 10 µM
[16] = target: Ribosomal protein S6 kinase alpha-6 (Homo sapiens, UniProt Q9UK32); test: Selectivity interaction (KinomeScan (DiscoverX)) EUB0000092b RPS6KA6; details: at 10 µM
[17] = target: Receptor tyrosine-protein kinase erbB-2 (Homo sapiens, UniProt P04626); test: Selectivity interaction (Rxn Biology Kinase assay) EUB0001632a ERBB2; details: at 10 µM

Sequence of Phosphatidylinositol 3-kinase catalytic subunit type 3 (Q8NEB9 whole entry): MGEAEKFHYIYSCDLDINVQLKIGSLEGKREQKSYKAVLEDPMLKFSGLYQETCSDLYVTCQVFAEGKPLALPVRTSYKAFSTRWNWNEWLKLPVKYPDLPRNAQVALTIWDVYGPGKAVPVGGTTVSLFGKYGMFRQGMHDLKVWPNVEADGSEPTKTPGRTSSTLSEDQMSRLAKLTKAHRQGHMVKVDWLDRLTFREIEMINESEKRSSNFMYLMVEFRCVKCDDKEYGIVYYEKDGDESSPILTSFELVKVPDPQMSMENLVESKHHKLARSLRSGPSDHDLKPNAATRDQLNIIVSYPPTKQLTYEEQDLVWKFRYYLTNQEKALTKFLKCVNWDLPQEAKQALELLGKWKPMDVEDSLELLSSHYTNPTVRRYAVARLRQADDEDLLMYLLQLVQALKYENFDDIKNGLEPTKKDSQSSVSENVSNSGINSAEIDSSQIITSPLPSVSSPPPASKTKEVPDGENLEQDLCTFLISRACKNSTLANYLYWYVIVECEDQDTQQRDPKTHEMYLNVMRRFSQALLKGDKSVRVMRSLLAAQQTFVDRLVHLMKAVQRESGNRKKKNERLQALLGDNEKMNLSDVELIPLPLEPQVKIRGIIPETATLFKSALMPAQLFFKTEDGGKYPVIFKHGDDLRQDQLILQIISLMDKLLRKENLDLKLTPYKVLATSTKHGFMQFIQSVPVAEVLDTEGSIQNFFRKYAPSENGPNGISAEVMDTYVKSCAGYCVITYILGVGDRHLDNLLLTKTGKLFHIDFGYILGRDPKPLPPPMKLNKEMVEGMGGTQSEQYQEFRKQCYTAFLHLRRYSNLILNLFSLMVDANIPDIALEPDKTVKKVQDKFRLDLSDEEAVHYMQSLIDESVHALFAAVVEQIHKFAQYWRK
Sequence of Serine/threonine-protein kinase/endoribonuclease IRE1 (Homo sapiens) (O75460 19-977 limits assumed): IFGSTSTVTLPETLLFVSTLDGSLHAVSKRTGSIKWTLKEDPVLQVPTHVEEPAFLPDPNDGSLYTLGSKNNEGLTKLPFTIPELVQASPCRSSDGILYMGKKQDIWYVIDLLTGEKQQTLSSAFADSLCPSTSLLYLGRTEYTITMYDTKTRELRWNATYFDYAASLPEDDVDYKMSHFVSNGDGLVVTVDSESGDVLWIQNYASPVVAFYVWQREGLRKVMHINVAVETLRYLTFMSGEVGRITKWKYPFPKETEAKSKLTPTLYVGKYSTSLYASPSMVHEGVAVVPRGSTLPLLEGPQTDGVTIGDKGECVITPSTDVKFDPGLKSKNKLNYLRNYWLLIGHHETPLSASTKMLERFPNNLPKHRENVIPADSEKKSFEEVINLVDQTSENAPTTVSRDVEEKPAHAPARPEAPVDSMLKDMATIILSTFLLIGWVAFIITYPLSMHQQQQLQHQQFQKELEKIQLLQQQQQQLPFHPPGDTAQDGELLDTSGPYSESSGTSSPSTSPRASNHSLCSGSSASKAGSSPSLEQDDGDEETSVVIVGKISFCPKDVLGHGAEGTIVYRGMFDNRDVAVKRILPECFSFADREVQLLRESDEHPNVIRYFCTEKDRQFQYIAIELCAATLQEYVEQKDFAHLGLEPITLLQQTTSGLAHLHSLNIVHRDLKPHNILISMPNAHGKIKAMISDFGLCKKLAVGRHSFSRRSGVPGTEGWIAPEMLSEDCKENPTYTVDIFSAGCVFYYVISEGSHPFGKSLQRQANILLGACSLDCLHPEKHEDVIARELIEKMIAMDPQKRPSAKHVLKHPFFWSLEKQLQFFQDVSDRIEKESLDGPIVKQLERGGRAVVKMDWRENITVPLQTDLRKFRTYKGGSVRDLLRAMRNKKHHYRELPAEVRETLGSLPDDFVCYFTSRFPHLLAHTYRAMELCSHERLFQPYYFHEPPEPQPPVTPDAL
Sequence of AP2-associated protein kinase 1 (Q2M2I8 whole entry, looked up): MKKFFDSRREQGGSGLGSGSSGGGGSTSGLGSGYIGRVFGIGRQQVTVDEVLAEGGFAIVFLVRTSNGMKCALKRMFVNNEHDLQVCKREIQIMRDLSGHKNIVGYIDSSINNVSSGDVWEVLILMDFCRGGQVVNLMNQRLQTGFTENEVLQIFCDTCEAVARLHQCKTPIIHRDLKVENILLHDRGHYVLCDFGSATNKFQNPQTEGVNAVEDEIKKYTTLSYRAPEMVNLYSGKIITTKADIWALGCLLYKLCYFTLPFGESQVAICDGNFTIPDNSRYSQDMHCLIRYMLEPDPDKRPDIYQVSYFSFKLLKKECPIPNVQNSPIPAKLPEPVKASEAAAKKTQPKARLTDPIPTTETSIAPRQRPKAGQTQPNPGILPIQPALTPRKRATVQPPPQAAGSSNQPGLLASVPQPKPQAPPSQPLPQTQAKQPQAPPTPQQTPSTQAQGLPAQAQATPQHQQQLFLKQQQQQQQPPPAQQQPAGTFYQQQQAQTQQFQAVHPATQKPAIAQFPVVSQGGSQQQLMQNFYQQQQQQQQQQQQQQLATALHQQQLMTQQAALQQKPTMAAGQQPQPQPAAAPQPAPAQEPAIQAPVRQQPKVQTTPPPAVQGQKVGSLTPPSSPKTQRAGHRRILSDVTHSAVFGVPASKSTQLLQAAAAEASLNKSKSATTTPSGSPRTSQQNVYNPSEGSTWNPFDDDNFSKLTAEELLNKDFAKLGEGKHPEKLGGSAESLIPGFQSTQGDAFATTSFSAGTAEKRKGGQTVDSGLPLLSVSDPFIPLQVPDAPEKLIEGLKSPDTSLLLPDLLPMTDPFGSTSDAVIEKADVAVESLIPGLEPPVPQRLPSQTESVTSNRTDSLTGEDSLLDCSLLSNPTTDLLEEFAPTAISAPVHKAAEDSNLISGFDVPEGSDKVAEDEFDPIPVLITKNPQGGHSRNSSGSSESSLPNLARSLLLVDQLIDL
Sequence of High affinity nerve growth factor receptor (P04629 33-796 limits assumed): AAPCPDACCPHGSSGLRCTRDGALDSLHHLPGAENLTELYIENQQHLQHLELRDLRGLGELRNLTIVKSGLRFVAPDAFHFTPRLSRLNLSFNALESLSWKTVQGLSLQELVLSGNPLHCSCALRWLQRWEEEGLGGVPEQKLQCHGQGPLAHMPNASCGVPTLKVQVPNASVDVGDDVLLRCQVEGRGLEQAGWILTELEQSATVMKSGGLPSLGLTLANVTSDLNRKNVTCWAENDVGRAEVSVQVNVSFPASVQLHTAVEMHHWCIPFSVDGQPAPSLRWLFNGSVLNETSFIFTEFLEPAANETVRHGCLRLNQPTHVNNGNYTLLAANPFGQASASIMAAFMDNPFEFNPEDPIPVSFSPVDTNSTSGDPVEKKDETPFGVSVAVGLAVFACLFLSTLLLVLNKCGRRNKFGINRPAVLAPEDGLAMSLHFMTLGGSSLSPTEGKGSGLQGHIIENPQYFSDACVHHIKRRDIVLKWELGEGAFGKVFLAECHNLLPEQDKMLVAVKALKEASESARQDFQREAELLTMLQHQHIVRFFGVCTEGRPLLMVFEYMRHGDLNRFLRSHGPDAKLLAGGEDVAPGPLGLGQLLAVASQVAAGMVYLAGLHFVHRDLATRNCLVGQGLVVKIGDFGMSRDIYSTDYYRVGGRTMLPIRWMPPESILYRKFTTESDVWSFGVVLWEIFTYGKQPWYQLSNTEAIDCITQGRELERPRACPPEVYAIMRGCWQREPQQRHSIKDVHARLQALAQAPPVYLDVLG
Sequence of Ribosomal protein S6 kinase alpha-6 (Q9UK32 whole entry): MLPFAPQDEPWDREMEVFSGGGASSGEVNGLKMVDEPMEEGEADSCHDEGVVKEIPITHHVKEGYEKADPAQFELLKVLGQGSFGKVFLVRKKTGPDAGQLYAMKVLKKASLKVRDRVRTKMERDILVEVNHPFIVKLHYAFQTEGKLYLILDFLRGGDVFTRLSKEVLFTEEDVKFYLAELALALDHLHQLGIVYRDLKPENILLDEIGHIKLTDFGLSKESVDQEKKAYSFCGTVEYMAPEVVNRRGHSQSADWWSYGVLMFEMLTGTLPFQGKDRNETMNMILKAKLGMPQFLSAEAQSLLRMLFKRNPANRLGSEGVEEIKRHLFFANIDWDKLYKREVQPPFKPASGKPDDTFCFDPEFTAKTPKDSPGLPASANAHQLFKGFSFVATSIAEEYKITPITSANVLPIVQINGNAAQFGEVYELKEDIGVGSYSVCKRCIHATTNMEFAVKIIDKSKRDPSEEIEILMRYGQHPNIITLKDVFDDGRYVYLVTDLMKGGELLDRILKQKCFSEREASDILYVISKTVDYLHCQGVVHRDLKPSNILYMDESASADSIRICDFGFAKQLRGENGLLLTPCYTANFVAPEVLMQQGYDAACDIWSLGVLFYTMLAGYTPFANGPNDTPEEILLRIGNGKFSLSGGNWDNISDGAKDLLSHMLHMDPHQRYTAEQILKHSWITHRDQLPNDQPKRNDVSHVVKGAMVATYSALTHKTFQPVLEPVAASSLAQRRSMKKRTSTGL
Sequence of Bone morphogenetic protein receptor type-1B (O00238 whole entry): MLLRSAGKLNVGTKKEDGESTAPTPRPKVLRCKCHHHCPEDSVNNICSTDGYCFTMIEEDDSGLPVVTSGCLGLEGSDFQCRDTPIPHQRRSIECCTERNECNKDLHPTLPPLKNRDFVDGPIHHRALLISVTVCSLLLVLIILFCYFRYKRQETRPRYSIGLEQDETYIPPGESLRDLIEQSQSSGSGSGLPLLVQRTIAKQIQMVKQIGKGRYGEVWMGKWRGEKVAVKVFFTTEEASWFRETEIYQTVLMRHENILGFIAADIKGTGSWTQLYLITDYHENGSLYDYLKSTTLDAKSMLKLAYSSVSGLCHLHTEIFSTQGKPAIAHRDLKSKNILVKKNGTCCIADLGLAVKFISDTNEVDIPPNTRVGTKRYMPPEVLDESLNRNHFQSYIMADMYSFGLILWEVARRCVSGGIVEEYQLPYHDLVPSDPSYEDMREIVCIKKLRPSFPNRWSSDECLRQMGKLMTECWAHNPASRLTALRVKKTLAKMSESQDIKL

% of control [1]: 100%
SMILES: CCN(CC)CCCCNc1ncc2cc(-c3cc(OC)cc(OC)c3)c(NC(=O)NC(C)(C)C)nc2n1

dTM [2]: 0 K
SMILES: CN(C(=O)c1cnn2cccnc12)c1cc2c(cc1N1CCOCC1)C(=O)N(C[C@@H](F)C(C)(C)O)C2

% of inhibition [3]: 15%
SMILES: CN1Cc2nccc(-c3cn(C)nc3-c3ccc(F)cc3)c2C1=O

SMILES: CN(C)CCOc1ccc(-c2nc(-c3ccncc3)c(-c3ccc4c(c3)CC/C4=N\O)[nH]2)cc1
% of control [4]: 7%

SMILES: N#Cc1cccc(-c2c[nH]c3ncnc(N4CCOCC4)c23)c1
% of control [5]: 31%
% of control [6]: 100%

SMILES: CC(C)(O)[C@H](F)CN1Cc2cc(NC(=O)c3cnn4cccnc34)c(N3CCOCC3)cc2C1=O
dTM [7]: 0.2 K

SMILES: C=CC(=O)Nc1cc(-n2c(=O)ccc3cnc4ccc(-c5ccc(NS(C)(=O)=O)cc5)cc4c32)ccc1C
% of control ([8]; at 1 µM): 84%
% of control ([8]; at 10 µM): 100%

SMILES: COCC(=O)NC/C=C/c1ccc2ncnc(Nc3ccc(Oc4ccc(C)nc4)c(C)c3)c2c1 [CP-724714]
% of control [9]: 98%

% of inhibition ([10]; at 0.01 µM): -5.9%
% of inhibition ([10]; at 0.04 µM): -16.2%
% of inhibition ([10]; at 0.2 µM): -1.2%
% of inhibition ([10]; at 1 µM): -2.9%
% of inhibition ([10]; at 5 µM): -24%
% of inhibition ([11]; at 0.01 µM): 1%
% of inhibition ([11]; at 0.04 µM): -8.9%
% of inhibition ([11]; at 0.2 µM): -9.3%
% of inhibition ([11]; at 1 µM): 2.6%
% of inhibition ([11]; at 5 µM): 6.3%
% of inhibition [12]: 9.07%
SMILES: CC[C@@H]1[C@H](F)C(=O)N[C@@H]1COc1nccc2cc(C(N)=O)c(OC)cc12 [ZIMLOVISERTIB]

IC50 [13]: > 10 µM
SMILES: CCc1cccc(CC)c1NC(=O)c1nn(C)c2c1CCc1cnc(Nc3ccc(C(=O)NC4CCN(C)CC4)cc3OC(F)(F)F)nc1-2

SMILES: O=C(NOC[C@H](O)CO)c1ccc(F)c(F)c1Nc1ccc(I)cc1F
% of control [14]: 66%

SMILES: CCC(=O)N1CCN(c2ccc(-n3c(=O)ccc4cnc5ccc(-c6cnc7ccccc7c6)cc5c43)cc2C(F)(F)F)CC1
% of control [15]: 45%
% of control [16]: 66%

% of inhibition [17]: 2.6%
SMILES: Cn1cc(-n2cnc3c(NCc4nc5cc(Cl)c(Cl)cc5[nH]4)nc(N4CCOCC4)nc32)cn1
